{"source": "patent US10149876B2", "about": "“Tripterygium wilfordii extracts to overcome chemotherapy resistance” (WESTERN UNIVERSITY OF HEALTH SCIENCES, priority 2012, dated 2018)", "key": {"[1]": {"tested_on": "BT474 cells", "test": "SRB cell viability assay, Herceptin-sensitive BT474 cells", "type": "cell-based, human", "settings": "for mean A at 565 nm: 72 h, background = 0.046", "procedure": "Cell culture of the above cell lines was performed as described in Example 2, except that 5,000, rather than 3,000 cells were plated per well for the K562, K562/Dox, BT474, SkBr3 lines.\nTable 17 also contains the serially-diluted concentrations of drugs that each cell line was tested against."}, "[2]": {"tested_on": "BT474-TxR cells", "test": "SRB cell viability assay, Herceptin-resistant BT474-TxR cells", "type": "cell-based, human", "settings": "for viability at 0.001 µM / viability at 0.02 µM / viability at 0.067 µM / viability at 0.2 µM / viability at 0.67 µM / viability at 2 µM / viability at 6.7 µM / viability at 20 µM / IC50: Homo sapiens; for viability at 0.001 µM / viability at 0.02 µM / viability at 0.067 µM / viability at 0.2 µM / viability at 0.67 µM / viability at 2 µM / viability at 6.7 µM / viability at 20 µM / mean A at 565 nm: 72 h; for viability at 0.67 µM: Lapatinib 0.67 μM; for viability at 2 µM: Lapatinib 2 μM; for viability at 6.7 µM: Lapatinib 6.7 μM; for viability at 20 µM: Lapatinib 20 μM; for IC50: lapatinib, BT474-TxR", "experimental": "PC3-TxR cells were plated into sterile, F-bottom Cellstar® 96 well cell culture plates with lids (Cat #655180, Purchased from Greiner Bio-one, Monroe, N.C.) by placing into each well, 100 μl of medium containing 3000 cells in RPMI 1640 supplemented with 10% fetal bovine serum (Thermo Scientific, Logan, Utah) and a solution of penicillin (100 U/ml) and streptomycin (100 μg/ml) (Life Technologies Grand Island, N.Y.). The cells were at passage 52 at the time of plating. Triplicate wells were assigned to each experimental condition tested, and a 24 hour recovery period for the cells following the seeding of the wells was allowed. During the recovery period, the cells were incubated at 37° C. and 5% CO2.\nThe LGT-E was prepared by adding an appropriate amount of LGT-E powder to DMSO to form a 500 mg/ml stock solution. The stock solution was alternately vortexed and sonicated until the LGT-E powder went into solution. The stock solution was diluted in RPMI 1640 medium (Mediatech, Manassas, Va., or Life Technologies Grand Island, NY) to reach the desired concentrations of LGT-E (e.g., 12, 25, or 60 μg/ml).\nPretreatment of the cells with LGT-E was carried out by aspirating the media from the wells, followed by adding 50 μl of LGT-E solution containing concentrations of either 12 or 25 μg/ml of LGT-E solution and incubation of the cells for two hours under conditions of 37° C. and 5% CO2.\nMedia was aspirated from each well, and replaced with a 10% solution of cold trichloroacetic acid (TCA) (Cat #: T6399, purchased from Sigma-Aldrich), and incubated for one hour at 4° C. After the TCA incubation, the TCA solution was aspirated, and the cells were washed five times with tap water. After removing the last wash, the plates were left with lids off at room temperature until the surfaces were dry, which took one to two hours. Then 50 μl of a 0.4% solution of sul-forhodamine B (SRB) sodium salt (Cat #: S9012, purchased from Sigma-Aldrich) was added to each well and the plates were incubated at room temperature for 20 to 30 minutes. Afterwards, the wells were washed five times with a 1% acetic acid solution in 10 mM TRIS base (Cat#: 161-0719, purchased from Bio-Rad Laboratories, Hercules, Calif.). The plates were subsequently left to dry for several hours or overnight. SRB that remained in the dried wells was solubilized by adding 100 μl of SRB solubilization solution (10 mM TRIS base) to each well, and placing the plates either on a gently-moving shaker or letting the plates remain stationary at room temperature until the SRB dissolves, which takes about five to ten minutes. The amount of SRB in each well, which correlated directly to the number of living cells at fixation, was determined spectrophotometrically at an absorbance of 565 nm by a microplate reader."}, "[3]": {"settings": "no LGT-E pre-treatment (control to Table 28)"}, "[4]": {"settings": "no LGT-E pre-treatment (control to Table 30)"}, "[5]": {"settings": "pre-treated with 25 μg/ml LGT-E"}}, "note": "Where “and” joins values, the source holds several entries; their conditions need not be identical. Equal entries are not always repeated. Where two headings read alike, the source gives them in different places."}
{"molecule": "CS(=O)(=O)CCNCc1ccc(-c2ccc3ncnc(Nc4ccc(OCc5cccc(F)c5)c(Cl)c4)c3c2)o1", "note": "[lapatinib]", "values": [{"measurement": "viability at 0.001 µM", "setting": "[1]; Homo sapiens, BT-474, 72 h", "value": 100, "unit": "%"}, {"measurement": "viability at 0.05 µM", "setting": "[1]; Homo sapiens, BT-474, 72 h", "value": 65.7, "unit": "%"}, {"measurement": "viability at 0.167 µM", "setting": "[1]; Homo sapiens, BT-474, 72 h", "value": 52.1, "unit": "%"}, {"measurement": "viability at 0.5 µM", "setting": "[1]; Homo sapiens, BT-474, 72 h", "value": 26.9, "unit": "%"}, {"measurement": "viability at 1.67 µM", "setting": "[1]; Homo sapiens, BT-474, 72 h", "value": 21.1, "unit": "%"}, {"measurement": "viability at 5 µM", "setting": "[1]; Homo sapiens, BT-474, 72 h", "value": 14.1, "unit": "%"}, {"measurement": "viability at 16.7 µM", "setting": "[1]; Homo sapiens, BT-474, 72 h", "value": 8, "unit": "%"}, {"measurement": "viability at 50 µM", "setting": "[1]; Homo sapiens, BT-474, 72 h", "value": 2.3, "unit": "%"}, {"measurement": "IC50", "setting": "[1]; Homo sapiens, BT-474, read-out: IC50 of drug when cells treated with drug only", "value": "116 nM and 0.067 µg/mL"}, {"measurement": "mean A at 565 nm", "setting": "[1]; Lapatinib 0.001 μM", "value": 1.688}, {"measurement": "mean A at 565 nm", "setting": "[1]; Lapatinib 0.167 μM", "value": 0.880}, {"measurement": "mean A at 565 nm", "setting": "[1]; Lapatinib 0.5 μM", "value": 0.453}, {"measurement": "mean A at 565 nm", "setting": "[1]; Lapatinib 5 μM", "value": 0.238}, {"measurement": "mean A at 565 nm", "setting": "[1]; Lapatinib 16.7 μM", "value": 0.136}, {"measurement": "mean A at 565 nm", "setting": "[1]; Lapatinib 50 μM", "value": 0.038}, {"measurement": "viability at 0.001 µM", "setting": "[2]; Lapatinib 0.001 μM, no LGT-E pre-treatment (control to Table 28)", "value": 100, "unit": "%"}, {"measurement": "viability at 0.001 µM", "setting": "[2]; Lapatinib 0.001 μM, no LGT-E pre-treatment (control to Table 30)", "value": 100, "unit": "%"}, {"measurement": "viability at 0.001 µM", "setting": "[2]; Lapatinib 0.001 μM, pre-treated with 25 μg/ml LGT-E", "value": 100, "unit": "%"}, {"measurement": "viability at 0.001 µM", "setting": "[2]; Lapatinib 0.001 μM, pre-treated with […] LGT-E", "value": 100, "unit": "%"}, {"measurement": "viability at 0.02 µM", "setting": "[2]; Lapatinib 0.02 μM, no LGT-E pre-treatment (control to Table 28)", "value": 97.3, "unit": "%"}, {"measurement": "viability at 0.02 µM", "setting": "[2]; Lapatinib 0.02 μM, no LGT-E pre-treatment (control to Table 30)", "value": 82.6, "unit": "%"}, {"measurement": "viability at 0.02 µM", "setting": "[2]; Lapatinib 0.02 μM, pre-treated with 25 μg/ml LGT-E", "value": 85.8, "unit": "%"}, {"measurement": "viability at 0.02 µM", "setting": "[2]; Lapatinib 0.02 μM, pre-treated with […] LGT-E", "value": 94, "unit": "%"}, {"measurement": "viability at 0.067 µM", "setting": "[2]; Lapatinib 0.067 μM, no LGT-E pre-treatment (control to Table 28)", "value": 97.6, "unit": "%"}, {"measurement": "viability at 0.067 µM", "setting": "[2]; Lapatinib 0.067 μM, no LGT-E pre-treatment (control to Table 30)", "value": 91.8, "unit": "%"}, {"measurement": "viability at 0.067 µM", "setting": "[2]; Lapatinib 0.067 μM, pre-treated with 25 μg/ml LGT-E", "value": 77.3, "unit": "%"}, {"measurement": "viability at 0.067 µM", "setting": "[2]; Lapatinib 0.067 μM, pre-treated with […] LGT-E", "value": 91.3, "unit": "%"}, {"measurement": "viability at 0.2 µM", "setting": "[2]; Lapatinib 0.2 μM, no LGT-E pre-treatment (control to Table 28)", "value": 84.7, "unit": "%"}, {"measurement": "viability at 0.2 µM", "setting": "[2]; Lapatinib 0.2 μM, no LGT-E pre-treatment (control to Table 30)", "value": 76.9, "unit": "%"}, {"measurement": "viability at 0.2 µM", "setting": "[2]; Lapatinib 0.2 μM, pre-treated with 25 μg/ml LGT-E", "value": 67.9, "unit": "%"}, {"measurement": "viability at 0.2 µM", "setting": "[2]; Lapatinib 0.2 μM, pre-treated with […] LGT-E", "value": 70.9, "unit": "%"}, {"measurement": "viability at 0.67 µM", "setting": "[2]; [3]", "value": 68.7, "unit": "%"}, {"measurement": "viability at 0.67 µM", "setting": "[2]; [4]", "value": 70.5, "unit": "%"}, {"measurement": "viability at 0.67 µM", "setting": "[2]; [5]", "value": 57.4, "unit": "%"}, {"measurement": "viability at 0.67 µM", "setting": "[2]; pre-treated with […] LGT-E", "value": 59.9, "unit": "%"}, {"measurement": "viability at 2 µM", "setting": "[2]; [3]", "value": 65.2, "unit": "%"}, {"measurement": "viability at 2 µM", "setting": "[2]; [4]", "value": 60.6, "unit": "%"}, {"measurement": "viability at 2 µM", "setting": "[2]; [5]", "value": 50.4, "unit": "%"}, {"measurement": "viability at 2 µM", "setting": "[2]; pre-treated with […] LGT-E", "value": 53.5, "unit": "%"}, {"measurement": "viability at 6.7 µM", "setting": "[2]; [3]", "value": 59.4, "unit": "%"}, {"measurement": "viability at 6.7 µM", "setting": "[2]; [4]", "value": 55.1, "unit": "%"}, {"measurement": "viability at 6.7 µM", "setting": "[2]; [5]", "value": 37.1, "unit": "%"}, {"measurement": "viability at 6.7 µM", "setting": "[2]; pre-treated with […] LGT-E", "value": 46.3, "unit": "%"}, {"measurement": "viability at 20 µM", "setting": "[2]; [3]", "value": 52.3, "unit": "%"}, {"measurement": "viability at 20 µM", "setting": "[2]; [4]", "value": 43.8, "unit": "%"}, {"measurement": "viability at 20 µM", "setting": "[2]; [5]", "value": 24.9, "unit": "%"}, {"measurement": "viability at 20 µM", "setting": "[2]; pre-treated with […] LGT-E", "value": 40.6, "unit": "%"}, {"measurement": "IC50", "setting": "[2]; LGT-E 25 μg/ml pre-treatment, read-out: IC50 of drug when cells pre-treated with Chemosensitizing Agent before drug treatment", "value": "2 µM and 1.16 µg/mL"}, {"measurement": "IC50", "setting": "[2]; line of LGT-E 25 μg/ml, read-out: IC50 of drug when cells treated with drug only", "value": "11 µM and 6.39 µg/mL"}, {"measurement": "mean A at 565 nm", "setting": "[2]; Lapatinib 0.001 μM, no LGT-E pre-treatment (control to Table 28), background = 0.045", "value": 1.135}, {"measurement": "mean A at 565 nm", "setting": "[2]; Lapatinib 0.001 μM, no LGT-E pre-treatment (control to Table 30), background = 0.047", "value": 1.176}, {"measurement": "mean A at 565 nm", "setting": "[2]; Lapatinib 0.001 μM, pre-treated with 25 μg/ml LGT-E, background = 0.047", "value": 0.957}, {"measurement": "mean A at 565 nm", "setting": "[2]; Lapatinib 0.001 μM, pre-treated with […] LGT-E, background = 0.045", "value": 0.997}, {"measurement": "mean A at 565 nm", "setting": "[2]; Lapatinib 0.02 μM, no LGT-E pre-treatment (control to Table 28), background = 0.045", "value": 1.104}, {"measurement": "mean A at 565 nm", "setting": "[2]; Lapatinib 0.02 μM, no LGT-E pre-treatment (control to Table 30), background = 0.047", "value": 0.971}, {"measurement": "mean A at 565 nm", "setting": "[2]; Lapatinib 0.02 μM, pre-treated with 25 μg/ml LGT-E, background = 0.047", "value": 0.821}, {"measurement": "mean A at 565 nm", "setting": "[2]; Lapatinib 0.02 μM, pre-treated with […] LGT-E, background = 0.045", "value": 0.937}, {"measurement": "mean A at 565 nm", "setting": "[2]; Lapatinib 0.067 μM, no LGT-E pre-treatment (control to Table 30), background = 0.047", "value": 1.079}, {"measurement": "mean A at 565 nm", "setting": "[2]; Lapatinib 0.067 μM, pre-treated with 25 μg/ml LGT-E, background = 0.047", "value": 0.740}, {"measurement": "mean A at 565 nm", "setting": "[2]; Lapatinib 0.067 μM, pre-treated with […] LGT-E, background = 0.045", "value": 0.911}, {"measurement": "mean A at 565 nm", "setting": "[2]; Lapatinib 0.2 μM, no LGT-E pre-treatment (control to Table 28), background = 0.045", "value": 0.961}]}
